Assay results reported in US20240150356A1, “Pyrimidine amide compounds and use thereof” (ALPHALA CO., LTD., priority 2019, published 2024).

The compounds below were run on Hep3B cells (hepatocellular carcinoma cell line) (assay: In vitro MTS cell viability assay (NCI-60 methodology), Hep3B). Details: Homo sapiens, 48 h, Table 1, MTS, 2 days drug incubation, 50% reduction vs time zero, read-out: Hep3B LC50.
Assay type: cell-based
Description: The cell viability measurement is based on the NCI-60 screening methodology (Nat. Rev. Cancer 6, 813-823, 2006). Briefly, cells are inoculated into 96-well plates at the optimal plating density. After 24 h, one of the two plates for Hep3B cell line is processed to determine a time zero cell viability (Tz) by MTS assay (Promega). Compounds are added over a 2-fold serial dilution to provide a total five drug concentrations plus DMSO control. Plates are incubated for a further 2 days, then measured cell viability by MTS assay [control growth (C) and test growth in the presence of drug at the five concentration levels (Ti)]. The LC50 is calculated from [(Ti−Tz)/Tz]×100=−50, which is the drug concentration resulting in a 50% reduction at the end of the drug treatment as compared to that at the beginning.
The compounds prepared in Tables 1-10 were tested in three in vitro assays, and the results are shown in Tables 1-10 for Hep3B and Table 11 for SW480 and NCI-H460 shown below. Herein, Hep3B refers to hepatocellular carcinoma cell line, SW480 refers to colon adenocarcinoma cell line, and NCI-H460 refers to human lung cancer cell line.
Shown in following Tables 1 to 10 are the structures and in vitro activities of exemplary compounds of formula (I).

SMILES | LC50
CN(C)CCn1ncc2c(NC(=O)c3ccc([N+](=O)[O-])s3)nc(-c3ccc(OC(F)(F)F)cc3)nc21 [Compound 1-31, N-(1-(2-(dimethylamino)ethyl)-6-(4-(trifluoromethoxy)phenyl)-1H-pyrazolo[3,4-d]pyrimidin-4-yl)-5-nitrothiophene-2-carboxamide] | 1860 nM
Cn1ncc2c(NC(=O)c3ccc([N+](=O)[O-])s3)nc(C#Cc3ccc(C(F)(F)F)cc3)nc21 [Compound 1-13, N-(1-methyl-6-((4-(trifluoromethyl)phenyl)ethynyl)-1H-pyrazolo[3,4-d]pyrimidin-4-yl)-5-nitrothiophene-2-carboxamide] | 2030 nM

Same assay, conditions: Homo sapiens, 48 h, Table 2, MTS, 2 days drug incubation, 50% reduction vs time zero, read-out: Hep3B LC50

SMILES | LC50
Cc1csc2c(-c3ccc(OC(F)(F)F)cc3)nc(NC(=O)c3ccc([N+](=O)[O-])s3)nc12 [Compound 2-8, N-(7-methyl-4-(4-(trifluoromethoxy)phenyl)thieno[3,2-d]pyrimidin-2-yl)-5-nitrothiophene-2-carboxamide] | 1710 nM

Same assay, conditions: Homo sapiens, 48 h, Table 4, MTS, 2 days drug incubation, 50% reduction vs time zero, read-out: Hep3B LC50

SMILES | LC50
Cc1csc2c(NC(=O)c3ccc([N+](=O)[O-])s3)nc(-c3cc(C(F)(F)F)cc(C(F)(F)F)c3)nc12 [Compound 4-6, N-(2-(3,5-bis(trifluoromethyl)phenyl)-7-methylthieno[3,2-d]pyrimidin-4-yl)-5-nitrothiophene-2-carboxamide] | 420 nM
Cc1csc2c(NC(=O)c3ccc([N+](=O)[O-])s3)nc(N3CCC(F)(F)C3)nc12 [Compound 4-11, N-(2-(3,3-difluoropyrrolidin-1-yl)-7-methylthieno[3,2-d]pyrimidin-4-yl)-5-nitrothiophene-2-carboxamide] | 3180 nM

Same assay, conditions: Homo sapiens, 48 h, Table 5, MTS, 2 days drug incubation, 50% reduction vs time zero, read-out: Hep3B LC50

SMILES | LC50
O=C(Nc1nc(N2CCOCC2)nc2c1cnn2-c1ccccc1)c1ccc([N+](=O)[O-])s1 [Compound 5-7, N-(6-morpholino-1-phenyl-1H-pyrazolo[3,4-d]pyrimidin-4-yl)-5-nitrothiophene-2-carboxamide] | 1460 nM
CCOCCOc1ccc(-c2nc(NC(=O)c3ccc([N+](=O)[O-])s3)c3cnn(-c4ccccc4)c3n2)cn1 [Compound 5-55, N-(6-(6-(2-ethoxyethoxy)pyridin-3-yl)-1-phenyl-1H-pyrazolo[3,4-d]pyrimidin-4-yl)-5-nitrothiophene-2-carboxamide] | 490 nM

Same assay, conditions: Homo sapiens, 48 h, Table 6, MTS, 2 days drug incubation, 50% reduction vs time zero, read-out: Hep3B LC50

SMILES | LC50
CC1CCCN(c2nc(NC(=O)c3ccc([N+](=O)[O-])s3)c3cnn(-c4ccc(C(C)(C)C)cc4)c3n2)C1 (stereo not drawn) [Compound 6-64, N-(1-(4-(tert-butyl)phenyl)-6-(3-methylpiperidin-1-yl)-1H-pyrazolo[3,4-d]pyrimidin-4-yl)-5-nitrothiophene-2-carboxamide] | 1070 nM
O=C(Nc1nc(-c2ccc(Cl)cc2)nc2c1cnn2-c1cccc(F)c1)c1ccc([N+](=O)[O-])s1 [Compound 6-91, N-(6-(4-chlorophenyl)-1-(3-fluorophenyl)-1H-pyrazolo[3,4-d]pyrimidin-4-yl)-5-nitrothiophene-2-carboxamide] | 180 nM
COc1ccc(-n2ncc3c(NC(=O)c4ccc([N+](=O)[O-])s4)nc(C4=CCC(C)(C)CC4)nc32)cc1 [Compound 6-29, N-(6-(4,4-dimethylcyclohex-1-en-1-yl)-1-(4-methoxyphenyl)-1H-pyrazolo[3,4-d]pyrimidin-4-yl)-5-nitrothiophene-2-carboxamide] | 820 nM
CCCOC[C@@H]1CCCN1c1nc(NC(=O)c2ccc([N+](=O)[O-])s2)c2cnn(-c3ccc(F)cc3)c2n1 [Compound 6-105, (S)—N-(1-(4-fluorophenyl)-6-(2-(propoxymethyl)pyrrolidin-1-yl)-1H-pyrazolo[3,4-d]pyrimidin-4-yl)-5-nitrothiophene-2-carboxamide] | 420 nM
CC1CC=C(c2nc(NC(=O)c3ccc([N+](=O)[O-])s3)c3cnn(-c4ccc(F)cc4)c3n2)CC1 (stereo not drawn) [Compound 6-142] | 740 nM
COCCOc1ccc(-c2nc(NC(=O)c3ccc([N+](=O)[O-])s3)c3cnn(-c4ccc(OC)cc4)c3n2)cn1 [Compound 6-26, N-(6-(6-(2-methoxyethoxy)pyridin-3-yl)-1-(4-methoxyphenyl)-1H-pyrazolo[3,4,d]pyrimidin-4-yl)-5-nitrothiophene-2-carboxamide] | 220 nM
COCCOc1ccc(-c2nc(NC(=O)c3ccc([N+](=O)[O-])s3)c3cnn(-c4ccc(C)cc4)c3n2)cn1 [Compound 6-12, N-(6-(6-(2-methoxyethoxy)pyridin-3-yl)-1-(p-tolyl)-1H-pyrazolo[3,4-d]pyrimidin-4-yl)-5-nitrothiophene-2-carboxamide] | 260 nM
CC(C)(C)c1ccc(-n2ncc3c(NC(=O)c4ccc([N+](=O)[O-])s4)nc(N4CCN(C(C)(C)C)CC4)nc32)cc1 [Compound 6-73] | 650 nM

Same assay, conditions: Homo sapiens, 48 h, Table 7, MTS, 2 days drug incubation, 50% reduction vs time zero, read-out: Hep3B LC50

SMILES | LC50
CCOCCOCCOc1ccc(-c2nc(NC(=O)c3ccc([N+](=O)[O-])s3)c3cnn(-c4ccc(C(F)(F)F)cn4)c3n2)cn1 [Compound 7-7, N-(6-(6-(2-(2-ethoxyethoxy)ethoxy)pyridin-3-yl)-1-(5-(trifluoromethyl)pyridin-2-yl)-1H-pyrazolo[3,4-d]pyrimidin-4-yl)-5-nitrothiophene-2-carboxamide] | 500 nM
C=CC(=O)Nc1ccc(-n2ncc3c(NC(=O)c4ccc([N+](=O)[O-])s4)nc(-c4ccc(F)cc4)nc32)cc1 [Compound 7-19, N-(1-(4-acrylamidophenyl)-6-(4-fluorophenyl)-1H-pyrazolo[3,4-d]pyrimidin-4-yl)-5-nitrothiophene-2-carboxamide] | 190 nM

Same assay, conditions: Homo sapiens, 48 h, Table 10, MTS, 2 days drug incubation, 50% reduction vs time zero, read-out: Hep3B LC50

SMILES | LC50
O=C(Nc1nc(-c2ccco2)nc2c1cnn2C1CCCCC1)c1ccc([N+](=O)[O-])s1 [Compound 10-4, N-(1-cyclohexyl-6-(furan-2-yl)-1H-pyrazolo[3,4-d]pyrimidin-4-yl)-5-nitrothiophene-2-carboxamide] | 1190 nM
CS(=O)(=O)c1ccc(-c2nc(NC(=O)c3ccc([N+](=O)[O-])s3)c3cnn(C4CCCCC4)c3n2)cc1 [Compound 10-34, N-(1-cyclohexyl-6-(4-(methylsulfonyl)phenyl)-1H-pyrazolo[3,4-d]pyrimidin-4-yl)-5-nitrothiophene-2-carboxamide] | 930 nM
O=C(Nc1nc(-c2ccc(Cl)c(Cl)c2)nc2c1cnn2C1CCCCC1)c1ccc([N+](=O)[O-])s1 [Compound 10-43, N-(1-cyclohexyl-6-(3,4-dichlorophenyl)-1H-pyrazolo[3,4,d]pyrimidin-4-yl)-5-nitrothiophene-2-carboxamide] | 770 nM
CC1CC(C)CC(n2ncc3c(NC(=O)c4ccc([N+](=O)[O-])s4)nc(-c4ccc(Cl)cc4F)nc32)C1 (stereo not drawn) [Compound 10-72, N-(6-(4-chloro-2-fluorophenyl)-1-(3,5-dimethylcyclohexyl)-1H-pyrazolo[3,4-d]pyrimidin-4-yl)-5-nitrothiophene-2-carboxamide] | 760 nM
O=C(Nc1nc(-c2ccccc2F)nc2c1cnn2C1CCCCC1)c1ccc([N+](=O)[O-])s1 [Compound 10-11, N-(1-cyclohexyl-6-(2-fluorophenyl)-1H-pyrazolo[3,4-d]pyrimidin-4-yl)-5-nitrothiophene-2-carboxamide] | 1940 nM
CC1(C)CCC(n2ncc3c(NC(=O)c4ccc([N+](=O)[O-])s4)nc(-c4ccc(Cl)cc4)nc32)CC1 [Compound 10-63, N-(6(4-chlorophenyl)-1-(4,4-dimethylcyclohexyl)-1H-pyrazolo[3,4-d]pyrimidin-4-yl)-5-nitrothiophene-2-carboxamide] | 860 nM
CCOc1ccc(-c2nc(NC(=O)c3ccc([N+](=O)[O-])s3)c3cnn(C4CCCCC4)c3n2)cc1Cl [Compound 10-44] | > 2000 nM
